Source: PubChem BioAssay (NCI)
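Each compound was tested at five concentrations against cells in 96-well plates for 48 hours. GI50 is the concentration that inhibits growth by half. TGI marks complete inhibition of growth.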

What was measured:
Assay in all cases: NCI anticancer screen, dose series, 48 h
[1] = test system: RXF 393 renal
[2] = test system: NCI/ADR-RES ovarian
[3] = test system: SK-MEL-2 melanoma
[4] = test system: DU-145 prostate
[5] = test system: UO-31 renal
[6] = test system: NCI-H522 lung
[7] = test system: CCRF-CEM leukemia
[8] = test system: NCI-H226 lung
[9] = test system: MDA-MB-231 breast
[10] = test system: NCI-H460 lung
[11] = test system: SF-268 CNS
[12] = test system: PC-3 prostate
[13] = test system: LOX IMVI melanoma
[14] = test system: HS 578T breast
[15] = test system: UACC-62 melanoma
[16] = test system: IGROV1 ovarian
[17] = test system: OVCAR-5 ovarian
[18] = test system: EKVX NSCLC
[19] = test system: SNB-19 CNS
[20] = test system: SF-539 CNS
[21] = test system: OVCAR-4 ovarian
[22] = test system: MALME-3M melanoma
[23] = test system: SK-OV-3 ovarian
[24] = test system: COLO 205 colon
[25] = test system: RPMI-8226 leukemia
[26] = test system: MDA-MB-435
[27] = test system: MCF7 breast
[28] = test system: SW-620 colon
[29] = test system: HCC-2998 colon
[30] = test system: BT-549 breast
[31] = test system: OVCAR-3 ovarian
[32] = test system: HOP-62 NSCLC
[33] = test system: SK-MEL-5 melanoma
[34] = test system: HCT-116 colon
[35] = test system: MOLT-4 leukemia
[36] = test system: UACC-257 melanoma
[37] = test system: U251 CNS
[38] = test system: TK-10 renal
[39] = test system: ACHN renal
[40] = test system: A498 renal
[41] = test system: SN12C renal
[42] = test system: OVCAR-8 ovarian
[43] = test system: CAKI-1 renal
[44] = test system: SF-295 CNS
[45] = test system: HCT-15 colon
[46] = test system: HOP-92 NSCLC
[47] = test system: 786-0 renal
[48] = test system: SR leukemia
[49] = test system: NCI-H23 lung
[50] = test system: M14 melanoma
[51] = test system: K-562 leukemia
[52] = test system: A549 NSCLC
[53] = test system: KM12 colon

SMILES: C=C1c2ccccc2C(=O)c2c1c1c(C(=O)OC)c(OC(=O)OCc3ccc([N+](=O)[O-])cc3)ccc1n2Cc1ccccc1
- GI50 [1]: 3.1 µM
- TGI [1]: > 100 µM
- GI50 [2]: 3.46 µM
- TGI [2]: 15 µM
- GI50 [3]: 23.9 µM
- TGI [3]: > 100 µM
- GI50 [4]: 3.62 µM
- TGI [4]: 33.5 µM
- GI50 [5]: 8.28 µM
- TGI [5]: 45.4 µM
- GI50 [6]: 6.83 µM
- TGI [6]: 38.6 µM
- GI50 [7]: 1.78 µM
- TGI [7]: 6.83 µM
- GI50 [8]: 19.6 µM
- TGI [8]: 44.1 µM
- GI50 [9]: 18.3 µM
- TGI [9]: 65.6 µM
- GI50 [10]: 26.8 µM
- TGI [10]: 88.6 µM
- GI50 [11]: 46.4 µM
- TGI [11]: > 100 µM
- GI50 [12]: 0.329 µM
- TGI [12]: 4.4 µM
- GI50 [13]: 35.7 µM
- TGI [13]: > 100 µM
- GI50 [14]: 4.69 µM
- TGI [14]: > 100 µM
- GI50 [15]: 10.5 µM
- TGI [15]: 22.6 µM
- GI50 [16]: 14 µM
- TGI [16]: 41.9 µM
- GI50 [17]: 17.7 µM
- TGI [17]: 49.5 µM
- GI50 [18]: 33.6 µM
- TGI [18]: > 100 µM
- GI50 [19]: 20.3 µM
- TGI [19]: 80.9 µM
- GI50 [20]: 6.47 µM
- TGI [20]: 32.3 µM
- GI50 [21]: 23.2 µM
- TGI [21]: > 100 µM
- GI50 [22]: 36 µM
- TGI [22]: > 100 µM
- GI50 [23]: 23.8 µM
- TGI [23]: 57.6 µM
- GI50 [24]: 32.4 µM
- TGI [24]: > 100 µM
- GI50 [25]: 2.3 µM
- TGI [25]: 13.1 µM
- GI50 [26]: 23.5 µM
- TGI [26]: > 100 µM
- GI50 [27]: 13.4 µM
- TGI [27]: 43.2 µM
- GI50 [28]: 5.63 µM
- TGI [28]: > 100 µM
- GI50 [29]: 16.7 µM
- TGI [29]: 39 µM
- GI50 [30]: 3.21 µM
- TGI [30]: 9.48 µM
- GI50 [31]: 2.39 µM
- TGI [31]: 8.05 µM
- GI50 [32]: 13.3 µM
- TGI [32]: 29.3 µM
- GI50 [33]: 29.1 µM
- TGI [33]: 64.3 µM
- GI50 [34]: 4.48 µM
- TGI [34]: 20.4 µM
- GI50 [35]: 2.6 µM
- TGI [35]: 11.6 µM
- GI50 [36]: 29.8 µM
- TGI [36]: > 100 µM
- GI50 [37]: 39.9 µM
- TGI [37]: > 100 µM
- GI50 [38]: 21.1 µM
- TGI [38]: > 100 µM
- GI50 [39]: 55.9 µM
- TGI [39]: > 100 µM
- GI50 [40]: 65.5 µM
- TGI [40]: > 100 µM
- GI50 [41]: 11 µM
- TGI [41]: 42.6 µM
- GI50 [42]: 2.51 µM
- TGI [42]: > 100 µM
- GI50 [43]: 20.3 µM
- TGI [43]: 58.2 µM
- GI50 [44]: 33.7 µM
- TGI [44]: > 100 µM
- GI50 [45]: 34.3 µM
- TGI [45]: > 100 µM
- GI50 [46]: 2.29 µM
- TGI [46]: 7.59 µM
- GI50 [47]: 7.17 µM
- TGI [47]: 26 µM
- GI50 [48]: 2.59 µM
- TGI [48]: > 100 µM
- GI50 [49]: 4.22 µM
- TGI [49]: 17.9 µM
- GI50 [50]: 27.6 µM
- TGI [50]: > 100 µM
- GI50 [51]: 2.55 µM
- TGI [51]: > 100 µM
- GI50 [52]: 16.5 µM
- TGI [52]: > 100 µM
- GI50 [53]: 12.7 µM
- TGI [53]: 61.4 µM
